Source: US11364232B2, “Polymer of gamma-glutamyl transpeptidase catalyzing hydrolysis-induced charge reversal and its application in the field of drug delivery” (ZHEJIANG UNIVERSITY, priority 2017, dated 2022)

Biological target: γ-glutamyl transpeptidase (Homo sapiens, UniProt P19440)
Assay: γ-glutamyl transpeptidase (GGT)-catalyzed hydrolysis of monomers followed by NMR
Format: biochemical
Conditions: monomer 25 μM in PBS pH 7.4 (D2O), GGT 1 U/mL, 37° C.
Experimental: Dissolve monomers GABEA or GAEA in PBS solution (pH=7.4, prepared by D2O) and configure the monomer concentration to 25 μM in the PBS solution. γ-glutamyl transpeptidase was added into the solution respectively so that the concentration of γ-glutamyl transpeptidase in the solution is 1 U/mL. At this time, the obtained product was immediately detected by nuclear magnetic resonance. The sample was placed in a 37° C. incubator and analyzed the nuclear magnetic resonance at different times.

γ-glutamyl transpeptidase, sequence (P19440 whole entry): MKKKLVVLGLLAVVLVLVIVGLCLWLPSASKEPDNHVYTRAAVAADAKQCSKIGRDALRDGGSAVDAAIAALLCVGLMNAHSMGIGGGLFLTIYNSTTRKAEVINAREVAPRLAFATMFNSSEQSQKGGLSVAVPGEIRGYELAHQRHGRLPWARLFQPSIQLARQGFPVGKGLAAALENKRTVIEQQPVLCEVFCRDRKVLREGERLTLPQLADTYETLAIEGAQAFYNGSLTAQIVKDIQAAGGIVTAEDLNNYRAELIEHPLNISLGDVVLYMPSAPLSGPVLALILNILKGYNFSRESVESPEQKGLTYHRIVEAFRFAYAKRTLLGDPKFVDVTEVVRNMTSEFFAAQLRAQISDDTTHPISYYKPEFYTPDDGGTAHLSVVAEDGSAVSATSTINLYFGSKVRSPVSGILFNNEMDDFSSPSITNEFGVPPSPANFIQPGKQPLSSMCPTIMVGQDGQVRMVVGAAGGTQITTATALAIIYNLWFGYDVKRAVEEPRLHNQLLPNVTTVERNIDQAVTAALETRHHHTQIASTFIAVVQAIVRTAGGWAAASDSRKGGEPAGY

Compound | hydrolysis activity of γ-glutamyl transpeptidase
C=CC(=O)NCCNC(=O)C(CC)NC(=O)CCC(N)C(=O)O (centres unmarked) [GABEA] | far greater than GAEA
C=CC(=O)NCCNC(=O)CCC(N)C(=O)O (centres unmarked) [GAEA] | lower catalytic activity
